Structures are written as SMILES.

The conditions of the series: solid state form.

Turning to `CC(C)(C)c1[nH]cnc1/C=c1\[nH]c(=O)/c(=C/c2ccccc2)[nH]c1=O` [Plinabulin Form G], the “stability upon exposure to humidity” value (upon exposure to humidity) is reported as “shows stability”. In addition, under “upon heating”, the stability upon heating entry is listed as “shows stability”.

Source of the values: patent US11434225B2, “Salts and solid state forms of plinabulin” (PLIVA HRVATSKA D.O.O., priority 2017, dated 2022).
